# Where two headings read alike, the source gives them in different places.
# Legend:
# [1] = system: skin; conditions: cited from earlier work
# [2] = system: alkaline phosphatase; type: biochemical
# Method: New stocks were made the of the 1:100 alkaline phosphatase reaction reagents.
# The conditions included: 1:100 dilution of alkaline phosphatase reaction reagent with two solvents (buffered saline and ethanol), dosing in 0.5 mL microcentrifuge tubes with 20 μL of chemical added to 180 μL of reaction reagent, and incubating with p-Nitrophenyl phosphate disodium salt (PNPP) substrate for 1-hour.
# [3] = skin, chemical lists of the experiments
SMILES,"in vivo GHS ([1]; rabbit, in vivo)",A2 - Results AVG [2],A2 - Results R1 [2],A2 - Results R3 [2],"in vivo GHS [1, 3]"
CC/C=C\CC1=C(C)CCC1=O,Cat. 2,2.527,2.405,2.704,–
CC(C)=CCC/C(C)=C/CO,–,1.894,1.876,1.956,Cat. 2
CCCCCBr [1-Bromopentane],–,2.686,2.590,2.598,Cat. 2
CCCCCCCCCCO [1-Decanol],Cat. 2,2.373,2.205,2.472,–
CC(C)(C)c1ccccc1O [2-tert-Butylphenol],–,2.615,2.829,2.448,–
CC(=O)OCc1ccccc1 [Benzyl Acetate],–,3.385,3.42,3.484,–
O=C(OCc1ccccc1)c1ccccc1O [Benzyl Salicylate],–,3.317,3.345,3.333,–
CC(CC=O)CCCC(C)(C)O (stereo not drawn) [Hydroxycitronellal],–,2.585,2.513,3.089,–
CC(C)O [Isopropanol],–,2.528,2.294,2.389,–
CCCCCCCCCCCCCC(=O)OC(C)C [Isopropyl Myristate],–,3.339,3.413,3.360,–
OCCc1ccccc1 [Phenylethyl alcohol],–,3.303,3.342,3.287,–
CC1=CCC(C(C)(C)O)CC1 (stereo not drawn) [alpha-Terpineol],Cat. 2,2.589,2.223,2.793,–
"C=C(C)[C@@H]1CC=C(CO)CC1 [p-Metha-1,8-dien-7-ol]",–,2.793,2.757,2.868,Cat. 2

# Source: patent US12559784B2 (priority 2023, dated 2026)
